Patent US4725578A, “Compounds having therapeutic effect and the preparation thereof” (Tobishi Pharmaceutical Co., Ltd., priority 1986, dated 1988)

Key:
Colon 26 = Colon 26 (ip-ip), survival T/C; type: in vivo; settings: 4 mg/kg × 9
Procedure: (§1) In the Table, the symbol T/C % means Treatment/Control %, that is the increase in life when the control is 100. The values are obtained by implanting tumor cells to groups of mice (or rats), administering the compound being tested in various amounts every 24 hours after the implantation of the tumor cells and then calculating the ratio, the median survival time of the group to which the compound has been administered to the survival of the control, multiplied by a factor of 100. This method is used in the screening of U.S. National Cancer Institute.

MOPC-104E = MOPC-104E (ip-ip), survival T/C; type: in vivo; settings: 2 mg/kg × 9 times
Procedure: as §1

P-388 cells = test: Antineoplastic action against implanted P-388 cells (ip-ip), survival T/C; type: in vivo, CDFl mice; settings: for T/C % (Treatment/Control %): Table 6, P388, intraperitoneal
Procedure: To the peritoneal cavity of each group of mice consisting of six CDFl mice per group, 10^6 /0.1 ml of P-388 cells or 10^5 /0.1 ml of L-1210 cells were implanted. […]
In the Table, the symbol T/C % means Treatment/Control %, that is the increase in life when the control is 100. […] This method is used in the screening of U.S. National Cancer Institute.
(§2) In Table 7, the symbol "i.P.-i.P." means that the tumor cells are implanted intraperitoneally and the compounds being tested are also administered intraperitoneally. The symbol "TR" is the therapeutic ratio obtained by dividing the dose which provides a maximum T/C value, by the dose which provides a minimum T/C value.

Yoshida sarcoma = Yoshida sarcoma (ip-ip), survival T/C; type: in vivo
Procedure: as §1

P 388 = P 388 (ip-iv), survival T/C; type: in vivo, mice; settings: 5 mg/kg × 5
Procedure: as §1
In Table 9, "iv" and "sc" means that the administration of the compounds is carried out intravenously and the implantation of the tumor cells is carried out subcutaneously.

MM2 = MM2 (ip-ip), survival T/C; type: in vivo, mice; settings: for mice continuing to live more than 60 days after implantation (60<): Table 7, MM2 (i.P. - i.P.)
Procedure: as §1, with “Institute. […]” for “Institute.”
as §2
The term in Table 7, last column "3/6 60<", means that 3 mice out of 6 mice continue to live more than 60 days after the implantation of the tumor cells.

B-16 melanoma = test: B16 melanoma (ip-ip), survival T/C; type: in vivo, mice
Procedure: as §1, with “Institute. […]” for “Institute.”
as §2

L-1210 cells = test: Antineoplastic action against implanted L-1210 cells (ip-ip), survival T/C; type: in vivo, CDFl mice
Procedure: In this animal test, the antineoplastic action against the implanted tumor was examined in lower animals, in vivo, in respect of the compounds according to the present invention, by using CDFl mice.
To the peritoneal cavity of each group of mice consisting of six CDFl mice per group, 10^6 /0.1 ml of P-388 cells or 10^5 /0.1 ml of L-1210 cells were implanted. […] While to the control groups of CDFl mice, P-388 and L-1210 cells were implanted in the same manner and they were bred without administration of the compounds.
as §1, §2

Structure (SMILES): CCCCCCOc1ccc2cc1Oc1ccc(cc1)CC1C(=O)N(C)C(C2)C(=O)NC(C)C(=O)NC(C)C(=O)N(C)C(Cc2ccc(OC)cc2)C(=O)NC(C)C(=O)N1C (stereo not shown) [Ex. 2, n-hexylether of the compound TPC-A]
- T/C (Colon 26): 133.7%
- mice living more than 60 days (60<) (Colon 26): 2/6
- T/C (MOPC-104E): 145.3%
- T/C % (Treatment/Control %) (P-388 cells; dose 0.05 mg/kg): 110.3%
- T/C % (Treatment/Control %) (P-388 cells; dose 0.5 mg/kg): 137.3%
- T/C % (Treatment/Control %) (P-388 cells; dose 2 mg/kg): 153.5%
- T/C % (Treatment/Control %) (P-388 cells; dose 4 mg/kg): 173.0%
- P388 (i.P. - i.P.) T/C (%) (P-388 cells; Table 7, dose 0.05 mg/kg): 130.4%
- P388 (i.P. - i.P.) T/C (%) (P-388 cells; Table 7, dose 0.5 mg/kg): 143.5%
- P388 (i.P. - i.P.) T/C (%) (P-388 cells; Table 7, dose 2 mg/kg): 150.0%
- P388 (i.P. - i.P.) T/C (%) (P-388 cells; Table 7, dose 5 mg/kg): 176.1%
- T/C (Yoshida sarcoma; 0.1 mg/kg × 5): 129.7%
- T/C (Yoshida sarcoma; 0.5 mg/kg × 5): 173.6%
- T/C (Yoshida sarcoma; 1 mg/kg × 5): 160.4%
- T/C (Yoshida sarcoma; 2.5 mg/kg × 5): 149.5%
- T/C (P 388): 118.9%
- effectiveness against MM2 (MM2; (see Table 7)): effective
- mice continuing to live more than 60 days after implantation (60<) (MM2; dose 2 mg/kg): 3/6
- mice continuing to live more than 60 days after implantation (60<) (MM2; dose 4 mg/kg): 1/7
- MM2 (i.P. - i.P.) T/C (%) (MM2; Table 7, dose 0.5 mg/kg): 110.3%
- MM2 (i.P. - i.P.) T/C (%) (MM2; Table 7, dose 2 mg/kg): 129.3%
- MM2 (i.P. - i.P.) T/C (%) (MM2; Table 7, dose 4 mg/kg): 161.8%
- effectiveness against B-16 melanoma (B-16 melanoma; (see Table 7)): effective
- B16 (i.P. - i.P.) T/C (%) (B-16 melanoma; Table 7, dose 0.5 mg/kg): 130.5%
- B16 (i.P. - i.P.) T/C (%) (B-16 melanoma; Table 7, dose 2 mg/kg): 158.2%
- B16 (i.P. - i.P.) T/C (%) (B-16 melanoma; Table 7, dose 4 mg/kg): 136.2%
- L1210 (i.P. - i.P.) T/C (%) (L-1210 cells; Table 7, dose 0.5 mg/kg): 115.6%
- L1210 (i.P. - i.P.) T/C (%) (L-1210 cells; Table 7, dose 2 mg/kg): 126.6%
- L1210 (i.P. - i.P.) T/C (%) (L-1210 cells; Table 7, dose 4 mg/kg): 130.9%

Structure (SMILES): CCOc1ccc2cc1Oc1ccc(cc1)CC1C(=O)N(C)C(C2)C(=O)NC(C)C(=O)NC(C)C(=O)N(C)C(Cc2ccc(OC)cc2)C(=O)NC(C)C(=O)N1C (stereo not shown) [Ex. 3]
- T/C % (Treatment/Control %) (P-388 cells; dose 0.05 mg/kg): 137.3%
- T/C % (Treatment/Control %) (P-388 cells; dose 0.5 mg/kg): 165.4%
- T/C % (Treatment/Control %) (P-388 cells; dose 2 mg/kg): 162.2%

Structure (SMILES): COc1ccc(CC2C(=O)NC(C)C(=O)N(C)C3Cc4ccc(cc4)Oc4cc(ccc4OC(C)C)CC(C(=O)NC(C)C(=O)NC(C)C(=O)N2C)N(C)C3=O)cc1 (stereo not shown) [Ex. 5]
- T/C % (Treatment/Control %) (P-388 cells; dose 0.05 mg/kg): 142.4%
- T/C % (Treatment/Control %) (P-388 cells; dose 0.5 mg/kg): 175.1%
- T/C % (Treatment/Control %) (P-388 cells; dose 2 mg/kg): 105.4%

Structure (SMILES): CCCCCOc1ccc2cc1Oc1ccc(cc1)CC1C(=O)N(C)C(C2)C(=O)NC(C)C(=O)NC(C)C(=O)N(C)C(Cc2ccc(OC)cc2)C(=O)NC(C)C(=O)N1C (stereo not shown) [Ex. 7]
- T/C % (Treatment/Control %) (P-388 cells; dose 0.05 mg/kg): 122.2%
- T/C % (Treatment/Control %) (P-388 cells; dose 0.5 mg/kg): 142.7%
- T/C % (Treatment/Control %) (P-388 cells; dose 2 mg/kg): 165.4%

Structure (SMILES): CCCCCCCOc1ccc2cc1Oc1ccc(cc1)CC1C(=O)N(C)C(C2)C(=O)NC(C)C(=O)NC(C)C(=O)N(C)C(Cc2ccc(OC)cc2)C(=O)NC(C)C(=O)N1C (stereo not shown) [Ex. 8]
- T/C % (Treatment/Control %) (P-388 cells; dose 0.05 mg/kg): 115.8%
- T/C % (Treatment/Control %) (P-388 cells; dose 0.5 mg/kg): 144.7%
- T/C % (Treatment/Control %) (P-388 cells; dose 2 mg/kg): 150.1%
- T/C % (Treatment/Control %) (P-388 cells; dose 4 mg/kg): 164.0%

Structure (SMILES): CCCCCCCCOc1ccc2cc1Oc1ccc(cc1)CC1C(=O)N(C)C(C2)C(=O)NC(C)C(=O)NC(C)C(=O)N(C)C(Cc2ccc(OC)cc2)C(=O)NC(C)C(=O)N1C (stereo not shown) [Ex. 9]
- T/C % (Treatment/Control %) (P-388 cells; dose 0.05 mg/kg): 136.1%
- T/C % (Treatment/Control %) (P-388 cells; dose 0.5 mg/kg): 146.8%
- T/C % (Treatment/Control %) (P-388 cells; dose 2 mg/kg): 162.9%
- T/C % (Treatment/Control %) (P-388 cells; dose 4 mg/kg): 152.2%

Structure (SMILES): CCCCCCCCCOc1ccc2cc1Oc1ccc(cc1)CC1C(=O)N(C)C(C2)C(=O)NC(C)C(=O)NC(C)C(=O)N(C)C(Cc2ccc(OC)cc2)C(=O)NC(C)C(=O)N1C (stereo not shown) [Ex. 10]
- T/C % (Treatment/Control %) (P-388 cells; dose 0.05 mg/kg): 112.5%
- T/C % (Treatment/Control %) (P-388 cells; dose 0.5 mg/kg): 141.5%
- T/C % (Treatment/Control %) (P-388 cells; dose 2 mg/kg): 150.1%
- T/C % (Treatment/Control %) (P-388 cells; dose 4 mg/kg): 155.4%

Structure (SMILES): CCOC(=O)CCCOc1ccc2cc1Oc1ccc(cc1)CC1C(=O)N(C)C(C2)C(=O)NC(C)C(=O)NC(C)C(=O)N(C)C(Cc2ccc(OC)cc2)C(=O)NC(C)C(=O)N1C (stereo not shown) [Ex. 19(2), ethoxycarbonylpropylether (2) of TPC-A]
- T/C % (Treatment/Control %) (P-388 cells; dose 0.05 mg/kg): 113.8%
- T/C % (Treatment/Control %) (P-388 cells; dose 0.5 mg/kg): 139.6%
- T/C % (Treatment/Control %) (P-388 cells; dose 2 mg/kg): 141.7%
- T/C % (Treatment/Control %) (P-388 cells; dose 4 mg/kg): 153.1%

Structure (SMILES): COc1ccc(CC2C(=O)NC(C)C(=O)N(C)C3Cc4ccc(cc4)Oc4cc(ccc4OC4CCCCO4)CC(C(=O)NC(C)C(=O)NC(C)C(=O)N2C)N(C)C3=O)cc1 (stereo not shown) [Ex. 20, tetrahydropyranylether of TPC-A]
- T/C % (Treatment/Control %) (P-388 cells; dose 0.05 mg/kg): 138.4%
- T/C % (Treatment/Control %) (P-388 cells; dose 0.5 mg/kg): 164.3%
- T/C % (Treatment/Control %) (P-388 cells; dose 2 mg/kg): 121.1%

Structure (SMILES): CCC(=O)Oc1ccc2cc1Oc1ccc(cc1)CC1C(=O)N(C)C(C2)C(=O)NC(C)C(=O)NC(C)C(=O)N(C)C(Cc2ccc(OC)cc2)C(=O)NC(C)C(=O)N1C (stereo not shown) [Ex. 23]
- T/C % (Treatment/Control %) (P-388 cells; dose 0.05 mg/kg): 129.0%
- T/C % (Treatment/Control %) (P-388 cells; dose 0.5 mg/kg): 145.3%
- T/C % (Treatment/Control %) (P-388 cells; dose 2 mg/kg): 164.4%
- T/C % (Treatment/Control %) (P-388 cells; dose 10 mg/kg): 175.0%
